Source: patent US8552048B2, “Phosphoramidate alkylator prodrugs for the treatment of cancer” (Threshold Pharmaceuticals, Inc., priority 2006, dated 2013)
Like-named read-outs stand apart in the source and are kept apart here.

What was measured:
[1] = Pharmacokinetics of TH302 in Beagle Dogs (Table 6); type: in vivo; conditions: dog, plasma, intravenous; for half-life: read-out: T½ (converted); for Vd: read-out: Vss
[2] = Pharmacokinetics in Sprague-Dawley rats (single dose i.v. and p.o.); type: in vivo, male Sprague-Dawley rats; conditions: male, Sprague-Dawley, rat, rats; for clearance: read-out: CL (converted); for Vd: read-out: Vss; for AUC(0-t): read-out: AUC(0-t); for Cmax: read-out: Cmax; for MRT: read-out: MRT
Procedure: Pharmacokinetic studies were performed in male CD-1 (50 mg/kg i.p. or orally (p.o.)) or female nude mice (50 mg/kg i.v. or i.p.), male Sprague-Dawley rats (1, 5, 20 and 50 mg/kg i.v. and 100 mg/kg, p.o.), beagle dogs (20 mg/kg, i.v.) and cynomologus monkeys (20 mg/kg i.v.). Plasma TH302 concentrations were analyzed using a LC/MS method and the pharmacokinetic parameters computed using a noncompartmental method. Interspecies scaling was performed according to standard methods.
TH302 was dissolved in 50% PEG400/Saline to obtain a final concentration of 25 mg/mL, and then was further diluted to yield 25, 10, 2.5 and 0.5 mg/mL formulations of TH302 (pH The formulations were prepared just before dosing. The concentration of TH302 in dosing solution was confirmed by HPLC-UV. Male Sprague Dawley rats (body weight: 200 g to 230 g) were used in this study. Before the pharmacokinetic studies, animals were randomly assigned to four treatment groups cannulated in the carotid artery for serial blood sampling. All rats were administered a single intravenous bolus dose over one minute via the tail vein. The concentrations of TH302 in plasma were determined using a high performance liquid chromatography/mass spectrometry (HPLC/MS/MS) method. […]

[3] = in vivo, iv, 1 mg/kg, 1 mg/kg i.v. bolus, MEAN
[4] = in vivo, iv, 5 mg/kg, 5 mg/kg i.v. bolus, MEAN
[5] = in vivo, iv, 20 mg/kg, 20 mg/kg i.v. bolus, MEAN
[6] = in vivo, iv, 20 mg/kg, 20 mg/kg i.v. bolus, individual animals
[7] = in vivo, iv, 50 mg/kg, 50 mg/kg i.v. bolus, MEAN
[8] = plasma, iv, 1 mg/kg, 1 mg/kg i.v. bolus, MEAN
[9] = plasma, iv, 1 mg/kg, 1 mg/kg i.v. bolus, individual animals

`Cn1c(COP(=O)(NCCBr)NCCBr)cnc1[N+](=O)[O-]` [TH302] gave an AUC ([1]; female, Females, 4 mg/kg) of 2270 ng·h/mL, a Cmax ([1]; female, Females, 4 mg/kg) of 3830 ng/mL and a Tmax ([1]; female, Females, 4 mg/kg) of 31 min. The clearance ([1]; female, Females, 4 mg/kg) was 29.3 mL/min/kg, the half-life ([1]; female, Females, 4 mg/kg) was 16.1 min and the Vd ([1]; female, Females, 4 mg/kg) was 0.785 L/kg. For the same compound, the AUC ([1]; female, Females, 8 mg/kg) was 3400 ng·h/mL, the Cmax ([1]; female, Females, 8 mg/kg) was 6410 ng/mL and the Tmax ([1]; female, Females, 8 mg/kg) was 31.5 min. The clearance ([1]; female, Females, 8 mg/kg) was 39.7 mL/min/kg, the half-life ([1]; female, Females, 8 mg/kg) was 15.1 min and the Vd ([1]; female, Females, 8 mg/kg) was 0.974 L/kg. For the same compound, the AUC ([1]; female, Females, 16 mg/kg) was 7660 ng·h/mL, the Cmax ([1]; female, Females, 16 mg/kg) was 13700 ng/mL and the Tmax ([1]; female, Females, 16 mg/kg) was 31 min. For the same compound, the clearance ([1]; female, Females, 16 mg/kg) was 34.8 mL/min/kg, the half-life ([1]; female, Females, 16 mg/kg) was 16.7 min and the Vd ([1]; female, Females, 16 mg/kg) was 0.874 L/kg. For the same compound, the AUC ([1]; female, Females, 32 mg/kg) was 9530 ng·h/mL, the Cmax ([1]; female, Females, 32 mg/kg) was 18500 ng/mL and the Tmax ([1]; female, Females, 32 mg/kg) was 31 min. The clearance ([1]; female, Females, 32 mg/kg) was 56.5 mL/min/kg, the half-life ([1]; female, Females, 32 mg/kg) was 15.4 min and the Vd ([1]; female, Females, 32 mg/kg) was 1.37 L/kg. It also gave an AUC ([1]; male, Males, 4 mg/kg) of 2330 ng·h/mL, a Cmax ([1]; male, Males, 4 mg/kg) of 4160 ng/mL and a Tmax ([1]; male, Males, 4 mg/kg) of 37 min. It also gave a clearance ([1]; male, Males, 4 mg/kg) of 28.3 mL/min/kg, a half-life ([1]; male, Males, 4 mg/kg) of 16.1 min and a Vd ([1]; male, Males, 4 mg/kg) of 0.822 L/kg. The AUC ([1]; male, Males, 8 mg/kg) was 3640 ng·h/mL, the Cmax ([1]; male, Males, 8 mg/kg) was 6350 ng/mL and the Tmax ([1]; male, Males, 8 mg/kg) was 31.5 min. The clearance ([1]; male, Males, 8 mg/kg) was 37.2 mL/min/kg, the half-life ([1]; male, Males, 8 mg/kg) was 15.6 min and the Vd ([1]; male, Males, 8 mg/kg) was 0.982 L/kg. For the same compound, the AUC ([1]; male, Males, 16 mg/kg) was 6200 ng·h/mL, the Cmax ([1]; male, Males, 16 mg/kg) was 10800 ng/mL and the Tmax ([1]; male, Males, 16 mg/kg) was 31.5 min. The clearance ([1]; male, Males, 16 mg/kg) was 43 mL/min/kg, the half-life ([1]; male, Males, 16 mg/kg) was 15.5 min and the Vd ([1]; male, Males, 16 mg/kg) was 1.1 L/kg. For the same compound, the AUC ([1]; male, Males, 32 mg/kg) was 11000 ng·h/mL, the Cmax ([1]; male, Males, 32 mg/kg) was 23000 ng/mL and the Tmax ([1]; male, Males, 32 mg/kg) was 31.5 min. It also gave a clearance ([1]; male, Males, 32 mg/kg) of 48.5 mL/min/kg, a half-life ([1]; male, Males, 32 mg/kg) of 14.9 min and a Vd ([1]; male, Males, 32 mg/kg) of 1.12 L/kg. It also gave a clearance [2, 3] of 78.2 mL/min/kg, a Vd [2, 3] of 2.05 L/kg and a clearance [2, 4] of 102 mL/min/kg. The Vd [2, 4] was 5.09 L/kg, the Vd ([2]; in vivo, iv, 5 mg/kg, 5 mg/kg i.v. bolus, individual animals) was 2.51 L/kg and the clearance [2, 5] was 102 mL/min/kg. For the same compound, the Vd [2, 5] was 2.29 L/kg, the clearance [2, 6] was 98.5 mL/min/kg and the Vd [2, 6] was 2.29 L/kg. The clearance [2, 7] was 98.5 mL/min/kg, the Vd [2, 7] was 1.67 L/kg and the half-life ([2]; in vivo, iv, 1 mg/kg i.v. bolus, MEAN, read-out: T1/2 (converted)) was 122 min. For the same compound, the half-life ([2]; in vivo, iv, 5 mg/kg i.v. bolus, MEAN, read-out: T1/2 (converted)) was 225 min, the half-life ([2]; in vivo, iv, 20 mg/kg i.v. bolus, MEAN, read-out: T1/2 (converted)) was 262 min and the half-life ([2]; in vivo, iv, 50 mg/kg i.v. bolus, MEAN, read-out: T1/2 (converted)) was 79.2 min. It also gave a bioavailability ([2]; in vivo, po, 100 mg/kg p.o., read-out: absolute oral bioavailability) of 77.3%, a half-life ([2]; in vivo, po, after p.o. dosing 100 mg/kg, read-out: terminal plasma t1/2 (converted)) of 95.4 min and an AUC(0-inf) [2, 8] of 221 ng·h/mL. It also gave an AUC(0-t) [2, 8] of 217 ng·h/mL, a Cmax [2, 8] of 802 ng/mL and an MRT [2, 8] of 53.4 min. The AUC(0-inf) [2, 9] was 178 ng·h/mL, the AUC(0-t) [2, 9] was 175 ng·h/mL and the clearance [2, 9] was 93.3 mL/min/kg. The Cmax [2, 9] was 683 ng/mL and the MRT [2, 9] was 57 min.
